Laboratory results from paper PMC4432589, “Structural basis for dynamic mechanism of nitrate/nitrite antiport by NarK” (Nature Communications, 2015).

How the values were obtained:
NarK [1] = biological target: T1, NarK (Escherichia coli, UniProt P10903); experiment: X-ray crystal structure (LCP, SIRAS and molecular replacement); conditions: occluded state (2.4 Å, pH 5.8, 100 mM NH4NO3) and inward-open state (2.4 Å, pH 6.0); central substrate-binding site
T1 construct: full-length gene in pET-modified vector; GFP-His8 tag cleaved by TEV protease; expressed in E. coli C41(DE3) delta-acrB; DDM/CHS purified; LCP crystals or soybean lipid proteoliposomes
T1 sequence (P10903 1-463): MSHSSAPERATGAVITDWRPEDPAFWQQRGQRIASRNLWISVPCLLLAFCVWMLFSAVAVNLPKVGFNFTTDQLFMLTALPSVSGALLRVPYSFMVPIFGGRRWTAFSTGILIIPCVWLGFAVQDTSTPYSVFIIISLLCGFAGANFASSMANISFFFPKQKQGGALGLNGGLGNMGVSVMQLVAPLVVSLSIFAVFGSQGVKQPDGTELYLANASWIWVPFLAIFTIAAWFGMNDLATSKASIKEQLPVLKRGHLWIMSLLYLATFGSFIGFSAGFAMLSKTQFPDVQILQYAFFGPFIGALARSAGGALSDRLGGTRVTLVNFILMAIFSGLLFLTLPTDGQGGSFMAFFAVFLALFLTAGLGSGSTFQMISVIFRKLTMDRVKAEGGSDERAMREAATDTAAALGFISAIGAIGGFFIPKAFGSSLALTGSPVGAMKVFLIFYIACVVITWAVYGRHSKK

NarK [2] = biological target: T1, NarK; experiment: nitrite uptake into NarK proteoliposomes, DAF-FM fluorescence; assay type: biochemical; conditions: 50 mM NaNO2 outside, 50 mM NaNO3 inside as counter-anion; pH 7.0; membrane potential; 37 °C

Row | Compound | X-ray crystal structure (LCP, SIRAS and molecular replacement) (NarK [1]) | nitrite uptake into NarK proteoliposomes, DAF-FM fluorescence (NarK [2])
1 | O=[N+]([O-])O [nitrate] | 4U4T (nitrate-bound inward-open state) and 4U4W (nitrate-bound occluded state) | –
2 | O=NO [nitrite] | – | We observed the uptake of nitrite when nitrate was present inside the liposomes
